Results taken from ChEMBL document CHEMBL4402590, “Small-Molecule Antagonist Targeting Exportin-1 via Rational Structure-Based Discovery” (J Med Chem, 2020).
The source made the active and inactive calls. The calls are words filed in the database; no cut-off is given here.

Legend:
[1] = molecular target: Exportin-1 (Homo sapiens, UniProt O14980); assay: Reversible inhibition of CRM1 in human 293T cells assessed as increase in translocation of NES-GFP to […] at 4 uM incubated for 2 hrs by confocal laser scanning microscopy; format: cell-based
[2] = test system: Mus musculus; assay: Anti-inflammatory activity against DSS-induced ulcerative colitis C57BL/6J mouse model assessed as reduction in diarrhea at 10 mg/kg, po administered for 7 days and measured daily; format: functional, organism-based
[3] = test system: Mus musculus; assay: Anti-inflammatory activity against DSS-induced ulcerative colitis C57BL/6J mouse model assessed as reduction in IL-1beta production at 10 mg/kg, po administered for 7 days and measured on day 7 by ELISA; format: functional, organism-based
[4] = test system: Mus musculus; assay: Anti-inflammatory activity against DSS-induced ulcerative colitis C57BL/6J mouse model assessed as restoration of damaged colon mucosal layer at 10 mg/kg, po administered for 7 days and measured on day 7 by ELISA; format: functional, organism-based
[5] = test system: Mus musculus; assay: Anti-inflammatory activity against DSS-induced ulcerative colitis C57BL/6J mouse model assessed as reduction in colon ulceration at 10 mg/kg, po administered for 7 days and measured on day 7; format: functional, organism-based
[6] = test system: Mus musculus; assay: Anti-inflammatory activity against DSS-induced ulcerative colitis C57BL/6J mouse model assessed as reduction in body weight loss at 10 mg/kg, po administered for 7 days and measured daily; format: functional, organism-based
[7] = test system: Mus musculus; assay: Anti-inflammatory activity against DSS-induced ulcerative colitis C57BL/6J mouse model assessed as reduction in IL-23 production at 10 mg/kg, po administered for 7 days and measured on day 7 by ELISA; format: functional, organism-based
[8] = test system: Mus musculus; assay: Anti-inflammatory activity against DSS-induced ulcerative colitis C57BL/6J mouse model assessed as reduction in IL-6 production at 10 mg/kg, po administered for 7 days and measured on day 7 by ELISA; format: functional, organism-based
[9] = test system: Mus musculus; assay: Anti-inflammatory activity against DSS-induced ulcerative colitis C57BL/6J mouse model assessed as reduction in colon swelling at 10 mg/kg, po administered for 7 days and measured on day 7; format: functional, organism-based
[10] = test system: Mus musculus; assay: Anti-inflammatory activity against DSS-induced ulcerative colitis C57BL/6J mouse model assessed as reduction in TNFalpha production at 10 mg/kg, po administered for 7 days and measured on day 7 by ELISA; format: functional, organism-based
[11] = test system: Mus musculus; assay: Anti-inflammatory activity against DSS-induced ulcerative colitis C57BL/6J mouse model assessed as restoration of colon length at 10 mg/kg, po administered for 7 days and measured on day 7; format: functional, organism-based
[12] = test system: Mus musculus; assay: Anti-inflammatory activity against DSS-induced ulcerative colitis C57BL/6J mouse model assessed as reduction in colon inflammation at 10 mg/kg, po administered for 7 days and measured on day 7; format: functional, organism-based

Exportin-1, sequence (O14980 whole entry): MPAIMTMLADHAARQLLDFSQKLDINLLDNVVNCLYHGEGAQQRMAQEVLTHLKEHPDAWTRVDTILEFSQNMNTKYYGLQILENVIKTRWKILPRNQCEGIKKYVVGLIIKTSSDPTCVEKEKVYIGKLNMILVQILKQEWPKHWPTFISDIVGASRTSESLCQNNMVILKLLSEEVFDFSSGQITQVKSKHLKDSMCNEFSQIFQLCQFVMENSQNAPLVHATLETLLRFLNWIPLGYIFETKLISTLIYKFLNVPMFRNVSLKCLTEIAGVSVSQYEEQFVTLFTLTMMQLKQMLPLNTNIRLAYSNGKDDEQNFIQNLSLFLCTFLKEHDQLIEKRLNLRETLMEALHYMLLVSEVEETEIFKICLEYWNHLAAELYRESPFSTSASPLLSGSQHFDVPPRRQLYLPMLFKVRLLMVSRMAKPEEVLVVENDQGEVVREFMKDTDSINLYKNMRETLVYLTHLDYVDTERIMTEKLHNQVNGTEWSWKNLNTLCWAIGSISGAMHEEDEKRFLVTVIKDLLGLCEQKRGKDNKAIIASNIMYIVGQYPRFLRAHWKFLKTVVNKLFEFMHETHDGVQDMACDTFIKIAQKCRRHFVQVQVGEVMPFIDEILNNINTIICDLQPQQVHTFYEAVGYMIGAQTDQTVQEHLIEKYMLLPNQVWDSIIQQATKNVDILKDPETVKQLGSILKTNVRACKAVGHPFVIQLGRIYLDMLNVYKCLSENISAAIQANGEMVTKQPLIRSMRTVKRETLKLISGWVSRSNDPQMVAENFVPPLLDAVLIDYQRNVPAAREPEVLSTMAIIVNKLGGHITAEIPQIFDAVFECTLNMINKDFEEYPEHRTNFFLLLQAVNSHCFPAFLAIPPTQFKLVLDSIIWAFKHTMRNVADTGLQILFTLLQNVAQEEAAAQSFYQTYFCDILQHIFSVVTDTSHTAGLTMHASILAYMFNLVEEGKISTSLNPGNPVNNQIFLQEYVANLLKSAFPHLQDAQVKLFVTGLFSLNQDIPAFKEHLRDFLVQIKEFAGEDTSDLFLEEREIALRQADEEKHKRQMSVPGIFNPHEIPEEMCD

O=C(/C=C\n1cnc(-c2cc(C(F)(F)F)cc(C(F)(F)F)c2)n1)NNc1cnccn1
inhibition [1]: inactive

O=C(O)C[C@H]1CCc2c1[nH]c1ccc(OCc3ccc(C4CCCC4)c(C(F)(F)F)c3)cc21
Activity [2]: Active | Activity [3]: Active | Activity [4]: Active | Activity [5]: Active | Activity [6]: Active | Activity [7]: Active | Activity [8]: Active | Activity [9]: Active | Activity [10]: Active | Activity [11]: Active | Activity [12]: Active
